# Source: the METLIN SMRT retention time set (Domingo-Almenara et al. 2019)
# Assay: gradient 5% acetonitrile 3 min, to 50% in 2 min, to 85% in 15 min, held 3 min, 100 µL/min
# Conditions: column: Zorbax Extend-C18 2.1 x 50 mm; eluents: water / acetonitrile, 0.1% formic acid
# Method in brief: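 Values are retention times taken from adduct peaks that software picked and an analyst inspected. The pure standards were run as mixtures of ~100 molecules on HPLC linked to a quadrupole time-of-flight mass spectrometer, in positive and negative ionization mode. A Zorbax Extend-C18 column (2.1 × 50 mm, 1.8 μm) was used at 100 μL/min with water and acetonitrile, each including 0.1% formic acid.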
row,Compound,RP-LC retention time [s]
1,COc1ccc(CC(=O)Nc2ccc(-c3nc(Cn4cccn4)c(C)o3)cc2)cc1,838
2,COCCNc1c(C(=O)OC)c(=O)[nH]c2ccc(F)cc12,622
3,CCOc1cccc(CN2CCc3nc(N4CCN(c5ccccc5F)CC4)ncc3C2)c1,852
4,O=c1c2ccccc2c(-c2nc(-c3cccnc3)no2)cn1-c1cccc(F)c1,709
5,COc1cc2c(cc1O)CCC1C2CC[C@@]2(C)C1CC[C@@H]2O (stereo partly drawn),836
6,Cc1ccc(Nc2ccc(NC(=O)C3CCCC3)cc2)nn1,566
7,Cc1ccc(C(C)NC(=O)C2CCN(c3nccnc3Oc3cccc(C)c3)CC2)cc1 (stereo not drawn),1070
8,CCOC(=O)C1CCN(c2cc3c(cc2NC(=O)C(C)(C)C)n(C)c(=O)c(=O)n3C)CC1,844
9,COc1ccc(Cl)cc1N1CC(c2nc(-c3ccccc3)no2)CC1=O (stereo not drawn),973
10,COc1ccc(S(=O)(=O)CCC(=O)NC(C(=O)N2CCCc3ccccc32)c2ccccc2)cc1 (stereo not drawn),928
11,Cc1sc(NC(=O)C2CCN(S(=O)(=O)c3cccs3)CC2)c(C(N)=O)c1C,769
12,COC[C@@H]1CN(S(=O)(=O)c2cccnc2)C[C@H]1c1ccncc1,652
13,O=C1CCCc2c1cc(C(=O)Nc1ccc(Cl)cc1)c(=O)n2-c1ccc(F)cc1,1060
14,CC(C)c1ccc(N2C=C(C(=O)N3CCOCC3)S(=O)(=O)c3ccccc32)cc1,916
15,CCN(CC)S(=O)(=O)c1ccc2c(c1)CC(C(=O)NCCC1=CCCCC1)N2C(C)=O (stereo not drawn),921
16,Cc1ccc2c(c1)c1ncn(Cc3nc(C(C)C)no3)c(=O)c1n2CC(=O)N1CCCC1,818
17,COC(=O)c1c(NCCN2CCCc3ccccc32)c2cccc(Cl)c2[nH]c1=O,955
18,CCc1nc2c(c(=O)n1CC(=O)NCc1ccc(F)cc1)CN(Cc1ccccc1)CC2,649
19,COC(=O)C1CCN(C(=O)C(=O)Nc2c3c(nn2-c2ccc(Cl)cc2)CSC3)CC1,671
20,CCc1cc(=O)n(CC(=O)Nc2ccc(C)cc2C)c(N)n1,631
21,O=C(c1ccccn1)N1CCCC(c2n[nH]c(C3CC3)n2)C1 (stereo not drawn),542
22,COc1ccc(NC(=O)c2sc(-c3cn(C)c4ncccc34)nc2C)c(C)c1,881

row,Compound,RP-LC retention time [s]
1,Cc1oc(C2CCN(S(=O)(=O)c3ccccc3F)CC2)nc1C(=O)N(C)C,781
2,O=C(CN1CCN(Cc2nc(-c3ccc(F)cc3)cs2)CC1)NCc1ccco1,595
3,O=C(C1=CN(c2ccc(F)cc2)c2cc(Cl)ccc2S1(=O)=O)N1CCCC1,844
4,Fc1cc(F)cc(-c2nnc(Cc3nc(-c4ccc(Cl)cc4)no3)o2)c1,1130
5,CC1=C(c2ccc(F)cc2)S(=O)(=O)N=C1N1CCC(NC(=O)CCC(C)C)CC1,844
6,CCN1CCN(C(=O)CN2C(=O)C3CCCCN3c3ccc(S(=O)(=O)N(C)C)cc32)CC1 (stereo not drawn),620
7,CCCN1C(=O)COc2ccc(-c3noc(-c4ccc(OC)c(OC)c4)n3)cc21,1110
8,CCc1noc(NC(C)=O)c1-c1ccc(C)c(S(=O)(=O)Nc2ccccc2Cl)c1,829
9,Cn1c(=O)n(CC(N)=O)c(=O)c2c1nc1n2CCCN1C1CCCCC1,657
10,CCc1ccc(OCC(=O)N(Cc2ccc(N(C)C)cc2)C2CCS(=O)(=O)C2)cc1 (stereo not drawn),792
11,CCOC(=O)C(C)NC(=O)N1CCN(c2nc3ccccc3n2CC)CC1 (stereo not drawn),609
12,COc1cc(NS(=O)(=O)c2ccc(-c3nnc(C4CCC4)o3)o2)cc(OC)c1,886
13,CN(Cc1ccccc1)C(=O)CN1C(=O)CCCc2cc(S(=O)(=O)N3CCCCC3)ccc21,907
14,O=C(Cc1csc2nc(-c3ccccc3)cn12)Nc1cccc(F)c1,805
15,COc1ccc(-c2cc3n(n2)CCCN(C(=O)C2CCOC2)C3)cc1 (stereo not drawn),703
16,Cc1ccc(-n2c(=O)n(CC(=O)NCCN3CCN(C)CC3)c3cccnc32)cc1,589
17,O=C(NCCCn1c(-c2ccncc2)nc2cccnc21)Nc1cccc(F)c1,651
18,CN1C(=O)c2cc(S(=O)(=O)NC3CCCCC3)ccc2Oc2cccnc21,929
19,CCOC(=O)c1noc2ncnc(Nc3cc(C)ccc3C)c12,1030
20,O=C(CSc1ccc(N2CCCC(C(=O)NC3CC3)C2)nn1)Nc1cc(F)ccc1Cl (stereo not drawn),660
21,Cc1cnc(C(=O)NC2C[C@H]3CC[C@@H](C2)N3C(=O)c2cnc(C)cn2)cn1 (stereo partly drawn),584
22,CCN1C(=O)CCc2cc(NC(=O)Cc3c(F)cccc3Cl)ccc21,792

row,Compound,RP-LC retention time [s]
1,O=C(c1cccs1)N1CCN(c2ccc(-c3noc(C4CC4)n3)cc2)CC1,949
2,CC(=O)c1cccc(Nc2c(C(=O)N3CCOCC3)cnc3nc(C)ccc23)c1,584
3,COc1ccccc1N1CCN(c2ncc(C(=O)O)c(C(C)C)n2)CC1,911
4,Cc1cc(-c2ccc(C)c(S(=O)(=O)N3CCN(c4ccccn4)CC3)c2)on1,719
5,CCC(C)(C)C(=O)O[C@H]1C[C@@H](C)C=C2C=C[C@H](C)[C@H](CC[C@@H](O)C[C@@H](O)CC(=O)O)[C@H]21,1020
6,CN(C)C(CNC(=O)c1cc(=O)c2ccccc2o1)c1ccccc1Cl (stereo not drawn),650
7,Cc1sc(C)c(S(=O)(=O)NCc2ccco2)c1-c1cc(C(F)(F)F)on1,1060
8,COc1cccc(CC(=O)NC(CC(C)C)C(=O)Nc2nc3ccccc3[nH]2)c1 (stereo not drawn),721
9,Cc1ccc(C)c(NC(=O)C(C)Oc2cc(C(F)(F)F)c3c(C)nn(C)c3n2)c1 (stereo not drawn),1040
10,COc1ccc(-n2ncc3c(=O)n(Cc4nc(-c5ccc(OC(F)(F)F)cc5)no4)cnc32)cc1,1100
11,CCOC(=O)C(C)NC(=O)N1CCN(c2nc3ccccc3nc2C(F)(F)F)CC1 (stereo not drawn),921
12,CC1CCc2nn(CC(=O)NCCN3CCCCCC3)cc2C1 (stereo not drawn),605
13,O=C(CC1CCN(C(=O)c2ccc3oc(C4CC4)nc3c2)CC1)N1CCN(c2ccccn2)CC1,602
14,O=C(NCc1ccco1)C1CN(C(=O)c2ccc(F)c(F)c2)C1,663
15,CCCN(CC1CCOC1)C(=O)Nc1ccc2c(c1)OCCO2 (stereo not drawn),732
16,Clc1cccc(-n2cc(-c3noc(-c4ccc5c(c4)OCO5)n3)nn2)c1,1100
17,CCOc1cc(C(=O)NC(C(=O)Nc2nc3ccccc3[nH]2)C(C)C)cc(OCC)c1OCC (stereo not drawn),824
18,Cc1cc(C)cc(OCc2nc(CCN(C)C(=O)COc3ccccc3)no2)c1,1030
19,COC1CCC12CCN(C(=O)c1cnn(C)c1)CC2 (stereo not drawn),642
20,COc1ccc(CNC(=O)C2(C)Oc3cccnc3N(C)C2=O)cc1 (stereo not drawn),748
21,COc1cccc(CNC(=O)c2c(C(F)(F)F)nn(C)c2C)c1,722
22,Cc1cc2[nH]c(C(=O)Nc3cc(F)c(F)c(F)c3)c(CN3CCOCC3)c2s1,737

row,Compound,RP-LC retention time [s]
1,CCNC(=O)c1nc(C(=O)NCCc2ccc(Cl)cc2)cs1,842
2,O=C(O)C1CCCN(CCC=C(c2ccccc2)c2ccccc2)C1 (stereo not drawn),783
3,CCCn1c(-c2cccc(C(=O)N3CCC4(CC3)OCCO4)c2)nc2cccnc21,684
4,CC(=O)Nc1nsc(N2CCC(C(=O)N3CCN(c4cccc(C)c4C)CC3)CC2)n1,806
5,CCOc1ccc(NC(=O)C2CCCN2S(=O)(=O)c2cc3c(cc2C)NC(=O)CO3)cc1 (stereo not drawn),770
6,CC(=O)Nc1onc(C)c1-c1ccc(C)c(S(=O)(=O)N2CCN(C3CCCCC3)CC2)c1,629
7,O=c1cc(CN(Cc2ccccc2)Cc2ccccc2)nc2ccccn12,671
8,O=C(NCc1ccc(N2CCCCC2)nc1)C1CCCCC1,616
9,CCOc1ccc(-n2ccn3c(CC(C)CC(=O)NCC(C)C)nnc3c2=O)cc1 (stereo not drawn),683
10,CCc1cccc(NC(=O)N2c3ccccc3CC2c2nc(CCOC)no2)c1 (stereo not drawn),1060
11,Cc1ccc(-n2c(=O)c3c(cc(C)n3C)n(CC(=O)Nc3cccc(Cl)c3C)c2=O)cc1,918
12,O=C(COc1ccc(F)cc1)Nc1nc(CN2CCc3ccccc3C2)cs1,608
13,C[C@H](Cc1ccc(O)c(O)c1)[C@@H](C)Cc1ccc(O)c(O)c1,878
14,Cc1ccc(Nc2c(-c3cc(Br)ccc3F)nc3cc(C)ccn23)cc1,818
15,Cc1ccc(=O)n(CC(=O)N2CCOCC2)n1,514
16,COc1cc(-c2noc(C3CC(=O)N(c4ccc(C)c(Cl)c4)C3)n2)cc(OC)c1OC (stereo not drawn),1050
17,COCC1CN(Cc2cn[nH]c2-c2ccccc2)CCC1(F)F (stereo not drawn),609
18,Cc1cc2c(=O)n(CC(=O)Nc3ccc(F)c(F)c3)ccc2s1,826
19,CC(C)c1ccc(N2C(=O)CN(S(C)(=O)=O)CC2(C)C(=O)NCc2ccccc2)cc1 (stereo not drawn),860
20,O=C(Nc1cnn(-c2ncncc2N2CCOCC2)c1)c1ccc(C(F)(F)F)cc1,714
21,Cc1ccc(C(=O)Nc2ccccc2[N+](=O)[O-])cc1,967
22,COc1ccc(-c2cc3nn(CC(=O)NC(C)(C)C)c(=O)n3c(C)n2)cc1,842
